“And” between values parts separate entries of the source, which are not always exact repeats. Identical values can stand only once. Like-named read-outs stand apart in the source and are kept apart here.
Key:
[1] = test system: four human tumour cell lines (MM96, HeLa, CI-80-13S, HeLa-S1a); experiment: cytotoxicity against four human tumour cell lines in vitro (FIGS. 3 and 4); assay type: cell-based; settings: for cytotoxicity (FIGS. 3 and 4): all four cell lines; for selectivity against the cisplatin-resistant lines: compared with formula (I) or (V), R=4-pyridyl and 3-pyridyl
Description: (§1) The origins of the human melanoma cell line MM96 has been described in Whitehead et al., 1973, Pigment Cell 1 383-389. The cell line JAM is described in Ward et al., 1987, Cancer Res. 47 2662-2667. The origin of the ovarian tumour line CI-80-13S has been described in Bertoncello et al., 1985, Aust. J. Exp. Biol. Med. Sci. 63 241-243. The origin of the cervical carcinoma cell line HeLa has been described in Maynard et al., 1986, Cancer Res. 46 5009-5093. The subclone HeLa-S1a was derived by stably transfecting HeLa with PAI-2 cDNA described in Schleuning et al., 1987, Mol. Cell. Biol. 7 4564-4567 in the sense orientation under the control of the cyto-megalovirus (CMV) promoter. The stably infected subclone was isolated following G418 selection and expression of the PAI-2 transgene characterised by immunoblot analysis and quantitated by ELISA. All of these cell lines have been used before for carrying out cell survival assays referred to in FIGS. 1-4. Cells were cultured at 37° in 5% CO2 /air in Roswell Park Memorial Institute medium 1640 containing 5% foetal calf serum, 100 μg/ml streptomycin, 100 IU/ml penicillin, 1 mM pyruvate, 50 μM nicotinamide and 3 mM HEPES.
(§2) Cells were seeded in microtitre plates (lowest number for fastest growing cells: 1000 HeLa, 2000 MM96, […] CI-80-13S cells per 6 mm well in 100 μl), normally but not necessarily allowed to attach overnight, then 5 dilutions of the drug were added to duplicate wells. After an overnight incubation to equilibrate the pH, the lids were quickly taped around the edge to prevent evaporation. The plates were incubated for 5-7 days, until the controls were nearly confluent. Cell growth/morphology was scored at each dose visually (inverted microscope). The medium was then replaced by 50 μl fresh medium containing 2 u/Ci/ml [methyl-3H]-thymidine (5 Ci/mmol; Radiochemical Centre, Amersham, Bucks., U.K.) and incubated for 2-4 hr. The cells were washed with PBS (0.1 M NaCl, 50 mM phosphate, pH 7.2), detached with 100 μl of PBS containing 0.2 mg/ml trypsin and 10 mM EDTA, and washed onto a glass fibre GF/a filter mat with water using a cell harvester. Later, wells were checked under the microscope to ensure complete detachment and washout. Radioactivity was determined in an LKB Beta Plate counter and the results plotted as log % control cpm versus dose. The ID50 (dose required to give 50% survival) was interpolated from this survival curve.
We have tested the following compounds of formula (III) against the four human tumour cell lines described above, i.e.: […]

[2] = test system: CI-80-13S vs JAM; HeLa-S1a vs HeLa; experiment: relative cytotoxic potency in cisplatin-resistant and non-resistant cells (Table 1); assay type: cell-based, human; settings: CI80-13-S vs JAM; HeLaS1a vs HeLa
Description: as §1, with “All of these cell lines have been used before for carrying out cell survival assays referred to in FIGS. 1-4. Cells were cultured at 37° in 5% CO2 /air in Roswell Park Memorial Institute medium 1640 containing 5% foetal calf serum, 100 μg/ml streptomycin, 100 IU/ml penicillin, 1 mM pyruvate, 50 μM nicotinamide and 3 mM HEPES.” left out
Cells were seeded in microtitre plates (lowest number for fastest growing cells: 1000 HeLa, 2000 MM96, […] CI-80-13S cells per 6 mm well in 100 μl), normally but not necessarily allowed to attach overnight, then 5 dilutions of the drug were added to duplicate wells. […] Cell growth/morphology was scored at each dose visually (inverted microscope). […] Radioactivity was determined in an LKB Beta Plate counter and the results plotted as log % control cpm versus dose. […]

[3] = test system: SKOV-3; experiment: cytotoxicity assay, sulforhodamine B; assay type: cell-based, human; settings: 96 hrs, mean ± SD or individual values when n<3
Protocol: (§3) In Table 2, reference is made to cell lines 41M, 41M-cisR, SKOV-3, CH1 and CH1-cisR.
(§4) J. Cancer 69 1-7. The characteristics of the cell line pairs CH1/CH1 cisR, 41M/41McisR and 41M/SKOV3 are described in Table 3.
(§5) The cytotoxicity assay used sulforhodamine B which stains the basic amino acids. Cells (5000 or 2500 for SKOV-3) were seeded into 96 well microtitre plates (Linbro, Flow Laboratories Inc., USA) in 0.1 ml of medium. After an overnight incubation, the metal phosphine compounds were dissolved in 0.9% NaCl or ethanol and diluted with medium, were added at concentrations ranging from 0.005 to 50 μM to quadruplicate wells. After 96 hrs incubation, the medium was removed and cells were fixed in 0.2 ml of cold 10% (w/v) trichloroacetic acid (May & Baker Ltd., Dagenham, England) for 30 mins at 4° C. The plates were washed five times with tap water. Then 0.1 ml of 0.4% (w/v) sulforhodamine B (Sigma Chemical Co., St. Louis, USA) dissolved in 1% acetic acid (Ajax Chemicals, Australia) was added to the wells and left to stand at room temperature for 15 mins. The plates were then washed five times with 1% acetic acid and left to dry overnight. The next morning, 0.1 ml of 10 mM Tris buffer (Sigma Chemical Co., St. Louis, USA) was then added to each plate to solubilise the dye. Absorbance was read at a wavelength of 570 nm using a 96 well plate reader Dynatech MR 5000 plate reader. Absorbance of treatment cells was expressed as a percentage of positive (drug-free) controls. The results were plotted as percentage growth versus drug concentration.

[4] = test system: 41M-cisR; experiment: cytotoxicity assay, sulforhodamine B; assay type: cell-based, human; settings: 96 hrs, mean ± SD or individual values when n<3
Protocol: as §3, §4, §5

[5] = test system: 41M; experiment: cytotoxicity assay, sulforhodamine B; assay type: cell-based, human; settings: 96 hrs, mean ± SD or individual values when n<3
Protocol: as §3, §4, §5

[6] = test system: 41M, 41M-cisR, SKOV-3, CH1, CH1-cisR; experiment: growth inhibition of cisplatin-sensitive and -resistant ovarian cancer cell lines (Table 2, FIG. 5); assay type: cell-based, human
Description: (§6) The sensitive CH1 cell line was established from a patient with drug-sensitive disease and its resistant variant (CH1-cisR) was generated by prolonged in vitro exposure to cisplatin during which it acquired more efficient DNA repair as described in Kelland et al., 1992, Cancer Research 52 3857-3864. The sensitive 41M cell line was also established from a patient with a sensitive tumor and its resistant variant (41M-cisR) was generated in the same way but acquired decreased uptake across the cell membrane (Kelland et al., 1992, supra). The intrinsically-resistant SKOV-3 ovarian carcinoma cell line has high glutathione levels as described in Mistry et al., 1991, Brit. J. Cancer 64 215-220 and reduced levels of bi-functional cisplatin-DNA lesions as described in McKeage et al., 1994, Brit. J. Cancer 69 1-7. The characteristics of the cell line pairs CH1/CH1 cisR, 41M/41McisR and 41M/SKOV3 are described in Table 3.
as §5, with “concentration. The drug concentration resulting in a 50% growth inhibition was termed the IC50. The passage numbers used for the cytotoxicity assay from each cell line were, CH1 passages 50-58, CH1 cis-R passages 77-83, 41M passages 50-63, 41M cisR 81-92 and SKOV-3 passages 106-128.” for “concentration.”

[7] = test system: CI-80-13S; experiment: cell survival after drug treatment ([methyl-3H]-thymidine); assay type: cell-based, human; settings: for IC50: CI-80-13S, mean ± SD or individual values when n<3, 5-7 days
Description: (§7) In FIGS. 1-4 and Table 1, reference is made to the cell lines HeLa, HeLa-S1a, JAM, CI-80-13S and MM96.
as §1, §2

[8] = test system: MM96; experiment: as above; assay type: cell-based, human; settings: for IC50: MM96L, mean ± SD or individual values when n<3, 5-7 days
Description: as §7, §1, §2

[9] = test system: HeLa-S1a; experiment: as above; assay type: cell-based, human; settings: for IC50: HeLa-S1a, mean ± SD or individual values when n<3, 5-7 days
Description: as §7, §1, §2

[10] = test system: JAM; experiment: as above; assay type: cell-based, human; settings: mean ± SD or individual values when n<3, 5-7 days
Description: as §7, §1, §2

[11] = test system: HeLa; experiment: as above; assay type: cell-based, human; settings: for IC50: HeLa, mean ± SD or individual values when n<3, 5-7 days
Description: as §7, §1, §2

[12] = test system: CH1; experiment: cytotoxicity assay, sulforhodamine B; assay type: cell-based, human; settings: 96 hrs, mean ± SD or individual values when n<3
Protocol: as §3, §4, §5

[13] = test system: CH1-cisR; experiment: cytotoxicity assay, sulforhodamine B; assay type: cell-based, human; settings: 96 hrs, mean ± SD or individual values when n<3
Protocol: as §3, §4, §5

[14] = test system: human tumour cell lines; experiment: selectivity of cytotoxicity over all cell lines evaluated (Tables 1 and 2); assay type: cell-based
Description: as §1, §2, §6
The cytotoxicity assay used sulforhodamine B which stains the basic amino acids. Cells (5000 or 2500 for SKOV-3) were seeded into 96 well microtitre plates (Linbro, Flow Laboratories Inc., USA) in 0.1 ml of medium. After an overnight incubation, the metal phosphine compounds were dissolved in 0.9% NaCl or ethanol and diluted with medium, were added at concentrations ranging from 0.005 to 50 μM to quadruplicate wells. After 96 hrs incubation, the medium was removed and cells were fixed in 0.2 ml of cold 10% (w/v) trichloroacetic acid (May & Baker Ltd., Dagenham, England) for 30 mins at 4° C. The plates were washed five times with tap water. […]

[15] = test system: cisplatin cytotoxicity; settings: in vitro; cited from earlier work
[16] = test system: cisplatin cytotoxicity; settings: in vivo; cited from earlier work

## O=[N+]([O-])[O-].O=[N+]([O-])[O-].[Ag+].[Ag+].c1ccc(P(CCP(c2ccccn2)c2ccccn2)c2ccccn2)nc1.c1ccc(P(CCP(c2ccccn2)c2ccccn2)c2ccccn2)nc1.c1ccc(P(CCP(c2ccccn2)c2ccccn2)c2ccccn2)nc1.c1ccc(P(CCP(c2ccccn2)c2ccccn2)c2ccccn2)nc1 [[Ag2 (d2pype)4](NO3)2]
[1]
  cytotoxicity (FIGS. 3 and 4): cytotoxic to all four cell lines
  selectivity against the cisplatin-resistant lines: do not show the same selectivity

## [Cl-].[Cl-].c1ccc([P+]2(c3ccccn3)CC[P+](c3ccccn3)(c3ccccn3)[Au-3]23[P+](c2ccccn2)(c2ccccn2)CC[P+](c2ccccn2)(c2ccccn2)[Au-3]2([P+](c4ccccn4)(c4ccccn4)CC[P+]2(c2ccccn2)c2ccccn2)[P+](c2ccccn2)(c2ccccn2)CC[P+]3(c2ccccn2)c2ccccn2)nc1 [[Au2 (d2pype)4]Cl2]
[2]
  sensitivity of cisplatin-resistant cell lines versus non-resistant cells: more sensitive
[3]
  IC50: 1100 nM
[4]
  IC50: 600 nM
[5]
  IC50: 700 nM
[6]
  selectivity and cytotoxicity in ovarian cancer cell-lines (FIG. 5): cytotoxic to the 41M pair and the resistant SKOV-3
[1]
  cytotoxicity (FIGS. 3 and 4): cytotoxic to all four cell lines
  selectivity against the cisplatin-resistant lines: do not show the same selectivity
[7]
  IC50: 60 ± 30 nM
[8]
  IC50: 90 nM
[9]
  IC50: 60 nM
[10]
  IC50: 100 nM and 390 nM
[11]
  IC50: 240 ± 100 nM

## [Au+].[Au+].[Cl-].[Cl-].c1cncc(P(CCP(c2cccnc2)c2cccnc2)c2cccnc2)c1.c1cncc(P(CCP(c2cccnc2)c2cccnc2)c2cccnc2)c1 [[Au2 (d3pype)2 Cl2]]
[12]
  IC50: 900 ± 400 nM
[13]
  IC50: 500 ± 100 nM
[3]
  IC50: 71000 ± 12000 nM
[4]
  IC50: 47000 nM
[5]
  IC50: 70000 ± 12000 nM
[6]; 41M/41M-cisR and CH1/CH1-cisR pairs
  sensitivity of cisplatin resistant cells versus non-resistant cells: consistently more sensitive
[7]; CI-80-13S ovarian in vitro
  cytotoxicity (FIGS. 1 and 2): selectively cytotoxic
[7]
  IC50: 400 nM
[8]
  IC50: 56000 nM
[8]; MM96 melanoma in vitro
  cytotoxicity (FIGS. 1 and 2): inactive
[9]; HeLa-S1a in vitro
  cytotoxicity (FIGS. 1 and 2): selectively cytotoxic
[9]
  IC50: 400 nM
[11]; HeLa cervical carcinoma in vitro
  cytotoxicity (FIGS. 1 and 2): inactive
[11]
  IC50: 38000 nM

## [Au+].[Cl-].c1ccc(P(CCP(c2ccccc2)c2ccccn2)c2ccccn2)cc1.c1ccc(P(CCP(c2ccccc2)c2ccccn2)c2ccccn2)cc1 (stereo not drawn) [[Au(2-pyppe)2]Cl]
[3]
  IC50: 200 nM
[4]
  IC50: 100 nM
[5]
  IC50: 100 nM
[6]; 96h incubation
  selectivity and cytotoxicity in ovarian cancer cell-lines (FIG. 5): cytotoxic to the 41M pair and the resistant SKOV-3
[14]
  number of cell lines against which cytotoxic: cytotoxic to all the cell lines evaluated
[14]; Tables 1 and 2
  degree of selectivity: the least selectivity

## Cl.c1cncc([P+]2(c3cccnc3)CC[P+](c3cccnc3)(c3cccnc3)[Au-3]23[P+](c2cccnc2)(c2cccnc2)CC[P+]3(c2cccnc2)c2cccnc2)c1 [[Au(d3pype)2]Cl]
[12]
  IC50: 1500 nM
[13]
  IC50: 10000 nM
[3]
  IC50: > 25000 nM
[4]
  IC50: 11000 nM
[5]
  IC50: > 25000 nM

## Cl.c1cncc([P+]2(c3cccnc3)CC[P+](c3cccnc3)(c3cccnc3)[Cu-3]23[P+](c2cccnc2)(c2cccnc2)CC[P+]3(c2cccnc2)c2cccnc2)c1 [[Cu(d3pype)2]Cl]
[12]
  IC50: 3000 nM
[3]
  IC50: > 50000 nM
[4]
  IC50: 30000 nM
[5]
  IC50: > 50000 nM

## Cc1cc(N)c2ccccc2[n+]1CCCCCCCCCC[n+]1c(C)cc(N)c2ccccc21 [delqualinium]
[15]
  enhancement of cisplatin cytotoxicity: enhance cisplatin cytotoxicity
[16]
  enhancement of cisplatin cytotoxicity: enhance cisplatin cytotoxicity
